Reference: patent US11213533B2, “Combinations comprising dibromopropamidine or diminazene and a tetracycline anti-bacterial agent” (UNION therapeutics A/S, priority 2016, dated 2022)
Where a name gives a salt, the structure may show the parent alone. Read-outs that look alike come from different tables or passages of the source.

What was measured:
[1] = system: Pseudomonas aeruginosa (X11045); test: Checkerboard MIC / synergy determination (FIC, CI) against Pseudomonas aeruginosa; type: cell-based; conditions: for MIC tetracycline (μg/ml) (combination) / CI value / synergy with diminazene (in words) / FIC tetracycline compound / FIC tetracycline / MIC tetracycline / MIC tetracycline compound / MIC / MIC dibromopropamidine (μg/ml) (combination) / FIC dibromopropamidine / MIC diminazene (μg/ml) (combination): P. aeruginosa; for CI value: CI < 1 = synergy; for synergy with diminazene (in words): combination with diminazene, Table 2; for FIC tetracycline compound: in combination with dibromopropamidine; for FIC tetracycline: in combination with diminazene; for synergy with dibromopropamidine (in words): combination with dibromopropamidine, inhibition of P. aeruginosa, Table 3; for MIC: Pseudomonas aeruginosa
Experimental: In microbiology, minimum inhibitory concentration (MIC) is the lowest concentration of an antibacterial that will inhibit the visible growth of a microorganism after overnight incubation. Minimum inhibitory concentrations are important in diagnostic laboratories to confirm resistance of microorganisms to an antimicrobial agent and also to monitor the activity of new antimicrobial agents. The MIC can be determined using standard methods, for example as described in Andrews, J. Antimicrobial Chemotherapy, 48, 2001, Suppl. S1, 5-16. Typically, MIC is determined using 96-well plates, and serial two-fold dilutions of the antibacterial agent in a culture medium containing the bacteria with an approximate concentration of 10^3 cells per well. Plates are incubated at 37° C. for 18 to 24 hours. Optical density, at a wavelength of 600 nm, is then measured at the start and at the end of the incubation period. Inhibition in a particular well is calculated as (Inhibition=1−ODtest/ODno treatment). The MIC value is the minimum concentration of antibacterial agent which gives 100% inhibition. Experiments are generally performed at least as triplicate biological replicates.
The CI is measured by first calculating the fractional inhibitory concentration (FIC) of the individual actives (e.g. “compound A” or “compound B”) in a combination product against a certain bacterial strain. This is calculated by dividing the minimum inhibitory concentration (MIC) of the active in a combination product by the minimum inhibitory concentration of the active alone.
The Combination Index (CI) is calculated by adding the FIC of the two actives together. CI value=FICCompound A+FICCompound B
A CI value of 1 means the combined effect of the two agents is additive. A CI value of less than 1 means that the two agents act synergistically. It is therefore understood that the lower the CI value, the better the synergistic effect of the combination product. For a drug combination to show synergistic effects, the CI value will typically be less than 1.
This study was conducted with the following strains: Pseudomonas aeruginosa (X11045). P. aeruginosa (X11045) was received form Statens Serum Institute.
The bacteria from cryopreserved stocks were grown on LB agar plates [G. Bertani, “Studies on lysogenesis. I. The mode of phage liberation by lysogenic Escherichia coli,” J. Bacteriol., vol. 62, no. 3, pp. 293-300, September 1951] and incubated overnight at 37° C.
One colony was transferred into 15 ml of cation-adjust Mueller Hinton broth (MH2) [J. H. Mueller and J. Hinton, “A Protein-Free Medium for Primary Isolation of the Gonococcus and Meningococcus,” Exp. Biol. Med., vol. 48, no. 1, pp. 330-333, October 1941] and incubated overnight at 37° C. shaken at 200 rpm.
Checkerboard Methods of Antimicrobial Combinations Synergy Determination • 1. Day 1. • Bacterial strains are isolated on agar plates and incubated overnight at 37° C. Pseudomonas aeruginosa (X11045) on LB agar. • 2. Day 2. • For each strain, one colony is transferred into 15 ml of Mueller Hinton broth (MHB) and incubated overnight at 37° C. shaken at 200 rpm. • 3. Day 3. • Fifty microliters of the O/N culture are inoculated to 5 ml of Mueller Hinton broth in 15 ml conical tubes and incubated for 5 hours at 37° C. shaken at 200 rpm. • 4. Dispense 150 μl of MHB in each well of the 12th column for positive and negative controls as shown above. • 5. Prepare each drug to Cmax×2 • a. Diminazene/Dibromopropamidine: • Make a series of 2-fold dilution as shown in the plate layout. Using the 12 channel pipet, dispense 75 μl of diminazene solution in each well so that the final volume will be 150 μl and the final concentration is as shown in the plate schematic above. • b. Tetracycline antibiotics: • Make a series of 2-fold dilution as shown in the plate layout. […]

E. Coli = test: Checkerboard MIC / synergy determination (FIC, CI) against E. coli; type: cell-based, Escherichia coli; conditions: for MIC tetracycline (μg/ml) (combination): MIC of the tetracycline antibiotic in combination with diminazene; for CI value: combination of the tetracycline antibiotic with diminazene, CI < 1 = synergy; for FIC tetracycline compound: in combination with diminazene; for MIC: Escherichia coli
[2] = cited from earlier work
[3] = MIC of the tetracycline antibiotic in combination with dibromopropamidine
[4] = MIC of the tetracycline antibiotic in combination with diminazene, OD600 after 18 hours
[5] = combination of the tetracycline antibiotic with dibromopropamidine
[6] = combination of the tetracycline antibiotic with diminazene
[7] = tetracycline antibiotic alone, Table 2 (diminazene series)
[8] = tetracycline antibiotic alone, Table 3 (dibromopropamidine series)
[9] = in combination with doxycycline hyclate
[10] = in combination with minocycline hydrochloride
[11] = in combination with tetracycline hydrochloride
[12] = in combination with tigecycline hydrate
[13] = diminazene alone, read-out: MIC diminazene
[14] = diminazene in combination with doxycycline hyclate
[15] = diminazene in combination with minocycline hydrochloride
[16] = diminazene in combination with tetracycline hydrochloride

Compound | MIC tetracycline (μg/ml) (combination) [1, 3] [µg/mL] | MIC tetracycline (μg/ml) (combination) [1, 4] [µg/mL] | CI value [1, 5] | CI value [1, 6] | synergy with diminazene (in words) [1] | FIC tetracycline compound [1] | FIC tetracycline [1] | MIC tetracycline compound [1, 8] [µg/mL] | MIC tetracycline (μg/ml) (combination) (E. Coli) [µg/mL] | CI value (E. Coli) | FIC tetracycline compound (E. Coli) | MIC tetracycline compound (E. Coli; tetracycline antibiotic alone) [µg/mL] | Protein binding (%) [2] | further results
C[C@H]1c2cccc(O)c2C(=O)C2=C(O)[C@]3(O)C(=O)C(C(N)=O)=C(O)[C@@H](N(C)C)[C@@H]3[C@@H](O)[C@@H]21 [Doxycycline hyclate] | 0.50 | 3.13 | 0.28 | 0.25 | strong synergy | 0.03 | 0.13 | 16.00 | 0.25 | 0.56 | 0.50 | 0.50 | 85% | MIC tetracycline [1, 7]: 25.00 µg/mL
CN(C)c1ccc(O)c2c1C[C@H]1C[C@H]3[C@H](N(C)C)C(O)=C(C(N)=O)C(=O)[C@@]3(O)C(O)=C1C2=O.Cl [Minocycline hydrochloride] | 0.50 | 3.13 | 0.28 | 0.25 | strong synergy | 0.03 | 0.13 | 16.00 | 0.13 | 0.50 | 0.25 | 0.50 | 66% | synergy with dibromopropamidine (in words) [1]: Especially strong synergy; MIC tetracycline [1, 7]: 25.00 µg/mL
CN(C)[C@@H]1C(O)=C(C(N)=O)C(=O)[C@@]2(O)C(O)=C3C(=O)c4c(O)cccc4[C@@](C)(O)[C@H]3C[C@@H]12.Cl [Tetracycline hydrochloride] | 2.00 | 4.00 | 0.63 | 0.50 | strong synergy | 0.13 | 0.25 | – | 0.50 | 2.00 | 1.00 | – | – | MIC ([1]; 18 h, tetracycline antibiotic alone, Table 2 (diminazene series), read-out: MIC tetracycline): 16 µg/mL; MIC ([1]; 18 h, tetracycline antibiotic alone, Table 3 (dibromopropamidine series), read-out: MIC tetracycline compound): 16 µg/mL; MIC (E. Coli; 18 h, tetracycline antibiotic alone, read-out: MIC tetracycline compound): 0.5 µg/mL
CN(C)c1cc(NC(=O)CNC(C)(C)C)c(O)c2c1C[C@H]1C[C@H]3[C@H](N(C)C)C(O)=C(C(N)=O)C(=O)[C@@]3(O)C(O)=C1C2=O [Tigecycline hydrate] | 0.50 | – | 0.52 | – | – | 0.02 | – | 32.0 | 0.25 | 0.38 | 0.25 | 1.00 | 80% | synergy with diminazene (in words) (E. Coli; combination with diminazene, Table 4): particularly good synergy
N=C(N)c1ccc(OCCCOc2ccc(C(=N)N)cc2Br)c(Br)c1 [dibromopropamidine, Dibromopropamidine dihydrochloride] | – | – | – | – | – | – | – | – | – | – | – | – | – | MIC ([1]; dibromopropamidine alone, read-out: MIC dibromopropamidine): 10 µg/mL; MIC dibromopropamidine (μg/ml) (combination) ([1]; dibromopropamidine in combination with doxycycline hyclate): 2.50 µg/mL; MIC dibromopropamidine (μg/ml) (combination) ([1]; dibromopropamidine in combination with minocycline hydrochloride): 2.50 µg/mL; MIC dibromopropamidine (μg/ml) (combination) ([1]; dibromopropamidine in combination with tetracycline hydrochloride): 5.00 µg/mL; MIC dibromopropamidine (μg/ml) (combination) ([1]; dibromopropamidine in combination with tigecycline hydrate): 5.00 µg/mL; FIC dibromopropamidine [1, 9]: 0.25; FIC dibromopropamidine [1, 10]: 0.25; FIC dibromopropamidine [1, 11]: 0.50; FIC dibromopropamidine [1, 12]: 0.50
N=C(N)c1ccc(/N=N/Nc2ccc(C(=N)N)cc2)cc1 [diminazene, Diminazene aceturate] | – | – | – | – | – | – | – | – | – | – | – | – | 65-85% | MIC [1, 13]: 250 µg/mL; FIC dibromopropamidine ([1]; Table 2 (diminazene table), in combination with doxycycline hyclate): 0.13; FIC dibromopropamidine ([1]; Table 2 (diminazene table), in combination with minocycline hydrochloride): 0.13; FIC dibromopropamidine ([1]; Table 2 (diminazene table), in combination with tetracycline hydrochloride): 0.25; MIC diminazene (μg/ml) (combination) [1, 14]: 31.25 µg/mL; MIC diminazene (μg/ml) (combination) [1, 15]: 31.25 µg/mL; MIC diminazene (μg/ml) (combination) [1, 16]: 62.50 µg/mL; MIC (E. Coli; [13]): 20 µg/mL; MIC diminazene (μg/ml) (combination) (E. Coli; [14]): 1.25 µg/mL; MIC diminazene (μg/ml) (combination) (E. Coli; [15]): 5.00 µg/mL; MIC diminazene (μg/ml) (combination) (E. Coli; [16]): 20.00 µg/mL; MIC diminazene (μg/ml) (combination) (E. Coli; diminazene in combination with tigecycline hydrate): 2.50 µg/mL; FIC diminazene (E. Coli; [9]): 0.06; FIC diminazene (E. Coli; [10]): 0.25; FIC diminazene (E. Coli; [11]): 1.00; FIC diminazene (E. Coli; [12]): 0.13
Doxycycline hyclate | – | – | – | – | – | – | – | – | – | – | – | – | – | synergy with dibromopropamidine (in words) [1]: Especially strong synergy
